# Earlier results as cited in patent US20230285491A1, “COMPOSITION FOR PREVENTION OF DUMPING SYNDROME IN A POST-BARIATRIC SURGERY SETTING” (METAGENICS, INC., priority 2020, published 2023).
# Target: T1, GLP-1 receptor (Homo sapiens, UniProt P43220)
# T1 construct: GLP-1 receptor antagonism prevented hypoglycemia in all patients and reversed neuroglycopenic symptoms; host or cells: gastric bypass patients (in vivo, endogenous receptor)
# Settings: gastric bypass patients
# T1 sequence (P43220 24-463): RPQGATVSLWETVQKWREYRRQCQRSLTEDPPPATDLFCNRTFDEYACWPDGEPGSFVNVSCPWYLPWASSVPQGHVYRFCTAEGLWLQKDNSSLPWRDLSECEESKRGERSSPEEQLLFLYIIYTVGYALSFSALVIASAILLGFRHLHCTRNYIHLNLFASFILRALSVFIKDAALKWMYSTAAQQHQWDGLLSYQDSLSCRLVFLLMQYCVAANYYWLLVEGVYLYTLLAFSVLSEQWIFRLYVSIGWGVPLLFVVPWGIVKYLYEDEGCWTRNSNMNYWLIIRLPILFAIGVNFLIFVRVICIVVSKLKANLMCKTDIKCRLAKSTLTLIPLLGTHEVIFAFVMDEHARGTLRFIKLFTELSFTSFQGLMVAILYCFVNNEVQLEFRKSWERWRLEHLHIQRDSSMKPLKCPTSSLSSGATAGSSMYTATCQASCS
substance,measurement,value
Exendin-(9-39),effect on postprandial hypoglycemic and hyperinsulinemic events,corrected postprandial hypoglycemic and hyperinsulinemic events
